Test results: paper PMC9655037, “Alternation of Organ-Specific Exposure in LPS-Induced Pneumonia Mice after the Inhalation of Tetrandrine Is Governed by Metabolizing Enzyme Suppression and Lysosomal Trapping” (International Journal of Molecular Sciences, 2022)

How the values were obtained:
MDR1 = MDR1 (Homo sapiens, UniProt P08183); assay: Bidirectional transport in MDR1-transfected LLC-PK1 cells; conditions: MDR1-transfected; 2 μM TET, 10 μM metoprolol, 10 μM atenolol, 2 μM digoxin; TAR 5 μM where stated; 2 h, 37 °C
Experimental: (§1) MDR1 expressing LLC-PK1 cells or MOCK LLC-PK1 cells were utilized to identify whether P-gp is involved in the efflux transport across the membrane barrier. Cells were cultured as described above. Cells were seeded at a density of 2 × 10^4 in Millicell® 24-well cell culture plates with a 6.5 mm insert (0.4 µm polycarbonate membrane) from Corning (Kennebunk, ME, USA) 7 days before the experiments. On the day of the experiment, transepithelial electrical resistance (TEER) was measured to assess monolayer integrity. After washing the cells twice with HBSS, transport experiments in either the apical-to-basolateral direction (A-B) or the basolateral-to-apical direction (B-A) were conducted. […] After incubating the plates at 37 °C for 2 h, samples from the receiving and donor wells (50 μL) were taken simultaneously. All the samples were stored at −40 °C for LC-MS/MS analysis.
(§2) In the bidirectional transport study in LLC-PK1 cells, the following equations were used to calculate Papp values and the MDR1 efflux ratio.

MDR1 (P-gp) = MDR1 (P-gp) (Homo sapiens, UniProt P08183); assay: as above
Experimental: as §1, §2

[1] = Bidirectional transport in MOCK LLC-PK1 cells; conditions: pig
Experimental: as §1, §2

HEK293-MOCK cells = assay: Uptake by MOCK (empty vector) HEK293 cells; conditions: positive control 20 μM, 10 min
Experimental: (§3) Expressing OATP1B1/OATP1B3 or MOCK HEK293 cells were utilized to evaluate whether TET is a substrate of these two SLC transporters. Cell culture was performed as mentioned above. Cells were seeded on 96-well plates at the density of 0.8 × 10^5 cells/well. The culture medium was replaced with a medium containing 5 mM sodium butyrate for 24 h before the transport study to enhance the expression of transporters. For the transport assay, the DMEM media were removed and the cells were washed with pre-warmed Krebs–Henseleit buffer twice (0.1 mL/well). The second washing buffer was kept in the wells and the plate was incubated at 37 °C for 5 min before the uptake assay was initiated. […] The incubation solution was removed and the cells were washed with ice-cold transportation buffer three times (0.1 mL/well). A total of 0.1 mL pure water was added to each well to lyse the cells by repeated freezing and thawing (−196 °C–37 °C, three times). The cell lysate was collected and stored at −40 °C for LC-MS/MS analysis and protein measurement.
(§4) In the uptake study of TET by OATP1B1 and OATP1B3 expressing the HEK293 cell line, the uptake clearance (U) of the substrate was calculated according to Equation (5), the transporter-mediated uptake ratio (UR) was calculated by dividing the uptake clearance from transporter-expressing cells to that from the mock cells according to Equation (6), and the inhibition ratio (IR) was calculated according to Equation (7), where p represents the protein content and T is the duration of the incubation time. (5) U=Clysate/p×T (6) UR=U/UMOCK (7) IR=(1−Uwith inhibitor−Umock with inhibitor/Uwithout inhibitor−Umock without inhibitor)×100

OATP1B3 = target: T1, OATP1B3 (Homo sapiens, UniProt Q9NPD5); assay: Uptake by OATP1B3-expressing HEK293 cells; conditions: positive control 20 μM, 10 min
T1 sequence (Q9NPD5 1-702): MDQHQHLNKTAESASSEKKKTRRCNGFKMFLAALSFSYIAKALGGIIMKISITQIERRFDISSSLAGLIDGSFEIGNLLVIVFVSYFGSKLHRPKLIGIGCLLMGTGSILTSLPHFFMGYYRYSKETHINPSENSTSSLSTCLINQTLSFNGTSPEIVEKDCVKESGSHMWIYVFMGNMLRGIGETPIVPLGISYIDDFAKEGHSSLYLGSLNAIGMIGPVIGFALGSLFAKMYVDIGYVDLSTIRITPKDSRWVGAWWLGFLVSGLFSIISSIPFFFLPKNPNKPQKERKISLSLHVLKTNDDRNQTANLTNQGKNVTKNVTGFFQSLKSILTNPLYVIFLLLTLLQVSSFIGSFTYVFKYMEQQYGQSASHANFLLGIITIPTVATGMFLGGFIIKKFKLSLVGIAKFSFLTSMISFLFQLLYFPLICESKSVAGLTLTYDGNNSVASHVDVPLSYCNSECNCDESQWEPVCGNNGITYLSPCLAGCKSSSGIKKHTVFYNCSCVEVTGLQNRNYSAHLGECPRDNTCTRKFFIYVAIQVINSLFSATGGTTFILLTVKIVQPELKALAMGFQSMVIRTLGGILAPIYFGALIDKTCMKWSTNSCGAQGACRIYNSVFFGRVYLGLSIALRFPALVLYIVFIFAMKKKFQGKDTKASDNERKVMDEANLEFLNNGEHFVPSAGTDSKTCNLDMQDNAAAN
Experimental: as §3, §4

CYP3a = CYP3a probe substrate turnover in microsomes from normal and LPS-treated mice; type: in vitro ADME, mouse; conditions: microsomes of LPS-treated vs normal mice, Figure 4A

Sequence of MDR1 (P-gp) (P08183 whole entry): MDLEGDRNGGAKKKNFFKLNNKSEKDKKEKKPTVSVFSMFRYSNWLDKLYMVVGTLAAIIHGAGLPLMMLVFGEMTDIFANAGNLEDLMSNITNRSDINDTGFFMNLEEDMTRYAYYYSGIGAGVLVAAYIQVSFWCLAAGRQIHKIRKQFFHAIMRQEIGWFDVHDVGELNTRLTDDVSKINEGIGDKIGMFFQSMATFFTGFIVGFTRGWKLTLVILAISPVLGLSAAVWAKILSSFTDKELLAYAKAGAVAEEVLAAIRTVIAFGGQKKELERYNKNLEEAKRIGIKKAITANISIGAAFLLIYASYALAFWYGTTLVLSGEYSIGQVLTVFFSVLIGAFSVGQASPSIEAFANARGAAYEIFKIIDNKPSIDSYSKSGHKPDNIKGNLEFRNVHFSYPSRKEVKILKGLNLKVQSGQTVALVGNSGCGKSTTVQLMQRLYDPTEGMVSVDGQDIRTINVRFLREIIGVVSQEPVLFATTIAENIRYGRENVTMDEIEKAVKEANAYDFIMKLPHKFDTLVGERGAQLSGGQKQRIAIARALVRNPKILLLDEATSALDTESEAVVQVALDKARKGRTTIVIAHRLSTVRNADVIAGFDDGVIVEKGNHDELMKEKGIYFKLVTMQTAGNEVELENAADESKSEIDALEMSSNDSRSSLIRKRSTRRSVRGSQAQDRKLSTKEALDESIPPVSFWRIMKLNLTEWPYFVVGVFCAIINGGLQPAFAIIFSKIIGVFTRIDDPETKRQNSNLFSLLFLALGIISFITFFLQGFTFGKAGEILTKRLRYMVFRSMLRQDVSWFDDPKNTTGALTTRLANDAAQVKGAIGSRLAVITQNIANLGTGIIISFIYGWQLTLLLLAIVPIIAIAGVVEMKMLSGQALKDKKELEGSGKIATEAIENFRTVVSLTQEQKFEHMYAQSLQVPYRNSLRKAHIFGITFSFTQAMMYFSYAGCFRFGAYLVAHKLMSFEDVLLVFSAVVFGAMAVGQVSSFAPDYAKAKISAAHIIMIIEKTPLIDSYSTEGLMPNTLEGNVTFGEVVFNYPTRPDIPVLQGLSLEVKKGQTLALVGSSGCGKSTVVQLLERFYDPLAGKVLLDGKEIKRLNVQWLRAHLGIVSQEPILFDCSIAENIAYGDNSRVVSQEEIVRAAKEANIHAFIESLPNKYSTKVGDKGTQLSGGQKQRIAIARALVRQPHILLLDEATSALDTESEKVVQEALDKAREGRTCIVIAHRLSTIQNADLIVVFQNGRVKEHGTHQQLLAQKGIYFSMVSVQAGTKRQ
Sequence of MDR1 (P08183 whole entry): as above

For `C[C@H]1O[C@@H](O[C@H]2[C@@H](O)C[C@H](O[C@H]3[C@@H](O)C[C@H](O[C@H]4CC[C@@]5(C)[C@H](CC[C@@H]6[C@@H]5C[C@@H](O)[C@]5(C)[C@@H](C7=CC(=O)OC7)CC[C@]65O)C4)O[C@@H]3C)O[C@@H]2C)C[C@H](O)[C@@H]1O` [Digoxin, digoxin], the “Papp A-B” value (MDR1) was 0.98 ± 0.11 **^,##, the “Papp B-A” value (MDR1) was 11.27 ± 0.77 **^,## and the efflux ratio at 2 h (MDR1 (P-gp); human, LLC-PK1) was 11.5. The Papp A→B at 2 h [1] was 2.25 ± 0.26 ×10⁻⁶ cm/s, the Papp B→A at 2 h [1] was 1.74 ± 0.2 ×10⁻⁶ cm/s and the efflux ratio at 2 h [1] was 0.77.
`COCCc1ccc(OCC(O)CNC(C)C)cc1` (centres unmarked) [Metoprolol, metoprolol] showed a Papp A→B at 2 h (MDR1 (P-gp)) of 28.2 ± 0.65 ×10⁻⁶ cm/s, a Papp B→A at 2 h (MDR1 (P-gp); human, LLC-PK1) of 28.3 ± 2.07 ×10⁻⁶ cm/s and an efflux ratio at 2 h (MDR1 (P-gp); human, LLC-PK1) of 1. It also gave a Papp A→B at 2 h [1] of 32.2 ± 2.8 ×10⁻⁶ cm/s, a Papp B→A at 2 h [1] of 25 ± 0.3 ×10⁻⁶ cm/s and an efflux ratio at 2 h [1] of 0.7.
In the case of `C[C@]12CC[C@@H]3c4ccc(O)cc4CC[C@H]3[C@@H]1CC[C@@H]2O[C@@H]1O[C@H](C(=O)O)[C@@H](O)[C@H](O)[C@H]1O` [Positive Control, 17β-estradiol-17β-D-glucuronide], the “Uptake Clearance” value (HEK293-MOCK cells; MOCK (OATP1B1 set)) is reported as 2.4 ± 0.03 nM/min/mg Protein, the “Uptake Clearance” value (HEK293-MOCK cells; MOCK (OATP1B3 set)) is reported as 2.7 ± 0.07 nM/min/mg Protein and the “Uptake Clearance” value (HEK293-MOCK cells; MOCK+RIF (OATP1B1 set)) is reported as 2.63 ± 0.08 nM/min/mg Protein. The “Uptake Clearance” value (HEK293-MOCK cells; MOCK+RIF (OATP1B3 set)) was 2.73 ± 0.08 nM/min/mg Protein, the “Uptake Clearance” value (OATP1B3; OATP1B3+RIF) was 3.66 ± 0.03 nM/min/mg Protein and the “Uptake Clearance” value (OATP1B3; OATP1B3 cells) was 30.0 ± 1.46 **^, ## nM/min/mg Protein.
For `Cc1ncc2n1-c1ccc(Cl)cc1C(c1ccccc1F)=NC2` [midazolam], the “1′-hydroxylation reaction lowered by LPS-induced pneumonia” value (CYP3a; at 24 h) was ~ 2.55 fold.
With `C[C@]12CC[C@H]3[C@@H](CCC4=CC(=O)CC[C@@]43C)[C@@H]1CC[C@@H]2O` [testosterone] the “change of 6-β-hydroxylation reaction under inflammation state (no obvious alternation)” value (CYP3a) was ~ 1.14 fold.
